Drawing on patent publication US12686665B2, “Bicyclic fused ring derivative or salt thereof and pharmaceutical composition comprising same” (YUHAN CORPORATION, priority 2021, dated 2026), this text covers IC50 for 22 molecules.

Where a name gives a salt, the structure may show the parent alone.

For orientation: IC50 means the concentration that gives 50% inhibition.

In this assay the target is T1, recombinant human Lysyl Oxidase-Like 2 (LOXL2) (Homo sapiens, UniProt Q9Y4K0).
T1 construct: purchased R&D systems
T1 sequence (Q9Y4K0 26-774): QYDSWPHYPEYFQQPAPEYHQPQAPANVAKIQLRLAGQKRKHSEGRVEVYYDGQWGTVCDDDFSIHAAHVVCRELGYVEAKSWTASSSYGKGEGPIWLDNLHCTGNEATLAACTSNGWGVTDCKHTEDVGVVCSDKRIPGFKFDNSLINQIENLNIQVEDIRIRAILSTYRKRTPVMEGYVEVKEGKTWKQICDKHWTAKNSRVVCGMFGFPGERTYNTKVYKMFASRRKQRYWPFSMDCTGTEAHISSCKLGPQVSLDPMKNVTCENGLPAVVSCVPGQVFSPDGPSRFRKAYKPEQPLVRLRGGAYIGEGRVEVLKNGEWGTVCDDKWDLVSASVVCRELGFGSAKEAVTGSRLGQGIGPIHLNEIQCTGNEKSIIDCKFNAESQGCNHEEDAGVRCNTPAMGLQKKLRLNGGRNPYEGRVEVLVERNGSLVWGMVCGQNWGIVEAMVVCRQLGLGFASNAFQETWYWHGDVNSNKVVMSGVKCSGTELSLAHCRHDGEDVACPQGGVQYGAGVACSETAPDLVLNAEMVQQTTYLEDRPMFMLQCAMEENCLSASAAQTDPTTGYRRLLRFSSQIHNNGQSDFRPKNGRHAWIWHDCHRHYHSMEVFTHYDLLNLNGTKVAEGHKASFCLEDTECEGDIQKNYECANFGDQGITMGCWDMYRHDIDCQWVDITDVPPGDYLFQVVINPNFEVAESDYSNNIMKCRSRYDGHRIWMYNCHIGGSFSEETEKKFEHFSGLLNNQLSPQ
The assay can be described thus: Amplex Red HRP-coupled amine oxidase assay, recombinant human LOXL2. The class given is biochemical. As to conditions: 60 min incubation with enzyme at 37° C., putrescine substrate, read-out: Inhibitory activity (IC50, nM) human LOXL2. As to the method:
The activities of the compounds according to the present invention against recombinant human Lysyl Oxidase-Like 2 (recombinant human LOXL2, R&D systems) were evaluated by measuring the levels of hydrogen peroxide in the HRP (horseradish peroxidase) coupled reactions, with the Amplex Red Hydrogen Peroxide Assay Kit (Molecular Probes, Invitrogen, USA). The tests were carried out at 37° C., and putrescine was used as a substrate. In the HRP coupling reaction, the oxidation of 10-acetyl-3,7-dihydroxyphenoxazine (Amplex Red reagent) by hydrogen peroxide generates a fluorescent product, i.e., resorufin. Briefly, the test compounds were dissolved in dimethyl sulfoxide (DMSO) at a concentration of 20 mM. Dose-response measurements were carried out by serial dilutions in DMSO to generate a six-point curve. The upper concentration was adjusted according to the potency of the compound, and then diluted with the reaction buffer to obtain a final DMSO concentration of 1%. Purified human LOXL2 in 50 mM sodium phosphate buffer (pH7.4) was added to each well of a 96 well black plate. The test compounds dissolved in DMSO were incubated with the human LOXL2 enzyme at 37° C. for 60 minutes. After the incubation for 60 minutes, a reaction mixture containing 400 μM Amplex Red reagent, 30 mM putrescine, and 2 U/mL HRP in 50 mM sodium phosphate buffer (pH 7.4) was added to each well. Fluorescence was measured with a microplate reader (Flexstation3, Molecular Devices), under the conditions of excitation at 530 nm and emission at 590 nm, 1 hour after the addition of the mixture. Inhibition by each compound was measured as % reduction in signal, compared to the control without an inhibitor (diluted DMSO only). The data were fixed to a four-variable logistic model, and […] values were calculated using the GraphPad Prism program.
With `N#Cc1cc(-c2cccc(CO)c2Cl)c2ncn(C/C(F)=C/CN)c2c1` [Example 186, (Z)-1-(4-amino-2-fluoro-2-but-1-yl)-4-(2-chloro-3-(hydroxymethyl)phenyl)-1H-benzo[d]imidazol-6-carbonitrile hydrochloride], the IC50 came out at 109 nM.

Regarding `COC(=O)c1cc(-c2cccc(S(=O)(=O)NCc3ccc(OC)cc3)c2)c2nnn(C/C(F)=C/CN)c2c1` [Example 125, methyl (Z)-1-(4-amino-2-fluorobut-2-en-1-yl)-4-(3-(N-(4-methoxybenzyl)sulfamoyl)phenyl)-1H-benzo[d][1,2,3]triazol-6-carboxylate hydrochloride], the IC50 came to 70.6 nM.

On to `Cn1nc(C(F)(F)F)cc1-c1cc(C(F)(F)F)cc2c1ncn2C/C(F)=C/CN` [Example 179, (Z)-3-fluoro-4-(4-[1-methyl-3-(trifluoromethyl)-1H-pyrazol-5-yl]-6-(trifluoromethyl)-1H-benzo[d]imidazol-1-yl)but-2-en-1-amine hydrochloride], for which the IC50 was 506 nM.

`CCn1nccc1-c1cc(C(F)(F)F)cc2c1ncn2C/C(F)=C/CN` [Example 177, (Z)-4-(4-(1-ethyl-1H-pyrazol-5-yl)-6-(trifluoromethyl)-1H-benzo[d]imidazol-1-yl]-3-fluoro-but-2-en-1-amine hydrochloride]: the IC50 was 419 nM.

With `CONC(=O)c1cc(-c2ccc(OC)c(S(=O)(=O)N(C)C)c2)c2nnn(C/C(F)=C/CN)c2c1` [Example 132, (Z)-1-(4-amino-2-fluorobut-2-en-1-yl)-4-(3-(N,N-dimethylsulfamoyl)-4-methoxyphenyl)-N-methoxy-1H-benzo[d][1,2,3]triazol-6-carboxamide hydrochloride], the IC50 stood at 18.7 nM.

With `NC/C=C(\F)Cn1nnc2c(-c3cccc(S(=O)(=O)NC4CC4)c3)cccc21` [Example 110, (Z)-3-(1-(4-amino-2-fluorobut-2-en-1-yl)-1H-benzo[d][1,2,3]triazol-4-yl)-N-cyclopropylbenzenesulfonamide hydrochloride], the IC50 worked out at 60 nM.

Consider `COC(=O)c1cc(-c2ccc(OC)c(S(=O)(=O)N(C)C)c2)c2nnn(C/C(F)=C/CN)c2c1` [Example 114, methyl (Z)-1-(4-amino-2-fluorobut-2-en-1-yl)-4-(3-(N,N-dimethylsulfamoyl)-4-methoxyphenyl)-1H-benzo[d][1,2,3]triazol-6-carboxylate hydrochloride], for which the IC50 was 18.6 nM.

Turning to `NC/C=C(\F)Cn1nnc2c(-c3cc(CO)ccc3F)cc(C(F)(F)F)cc21` [Example 198, (Z)-(3-(1-(4-amino-2-fluorobut-2-en-1-yl)-6-(trifluoromethyl)-1H-benzo[d][1,2,3]triazol-4-yl)-4-fluorophenyl)methanol hydrochloride], the IC50 was determined as 226 nM.

For `COC(=O)c1cc(-c2cccc(S(=O)(=O)NC3CC3)c2)c2nnn(C/C(F)=C/CN)c2c1` [Example 122, methyl (Z)-1-(4-amino-2-fluorobut-2-en-1-yl)-4-(3-(N-cyclopropylsulfamoyl)phenyl)-1H-benzo[d][1,2,3]triazol-6-carboxylate hydrochloride], the IC50 came to 32.2 nM.

In the case of `COc1ccc(-c2cccc3c2nnn3C/C(F)=C/CN)cc1S(=O)(=O)NC(C)C` [Example 109, (Z)-5-(1-(4-amino-2-fluorobut-2-en-1-yl)-1H-benzo[d][1,2,3]triazol-4-yl)-N-isopropyl-2-methoxybenzenesulfonamide hydrochloride], the IC50 is 72 nM.

`CCN(CC)S(=O)(=O)c1cccc(-c2cc(C(=O)OC)cc3c2ncn3C/C(F)=C/CN)c1` [Example 37, methyl (Z)-1-(4-amino-2-fluorobut-2-en-1-yl)-4-(3-(N,N-diethylsulfamoyl)phenyl)-1H-benzo[d]imidazol-6-carboxylate hydrochloride]: the IC50 stood at 70.3 nM.

In the case of `COC(=O)c1cc(-c2cccc(S(=O)(=O)N3CCC(F)(F)C3)c2)c2nnn(C/C(F)=C/CN)c2c1` [Example 115, methyl (Z)-1-(4-amino-2-fluorobut-2-en-1-yl)-4-(3-((3,3-difluoropyrrolidin-1-yl)sulfonyl)phenyl)-1H-benzo[d][1,2,3]triazol-6-carboxylate hydrochloride], the IC50 came to 58.7 nM.

In the case of `COC(=O)c1cc(-c2cccc(S(=O)(=O)N3CCCC3)c2)c2nnn(C/C(F)=C/CN)c2c1` [Example 116, methyl (Z)-1-(4-amino-2-fluorobut-2-en-1-yl)-4-(3-(pyrrolidin-1-ylsulfonyl)phenyl)-1H-benzo[d][1,2,3]triazol-6-carboxylate hydrochloride], the IC50 amounted to 52.4 nM.

On to `CCN(CC)S(=O)(=O)c1ccc(OC)c(-c2cc(C(=O)N(C)OC)cc3c2nnn3C/C(F)=C/CN)c1` [Example 138, (Z)-1-(4-amino-2-fluorobut-2-en-1-yl)-4-(5-(N,N-diethylsulfamoyl)-2-methoxyphenyl)-N-m ethoxy-N-methyl-1H-benzo[d][1,2,3]triazol-6-carboxamide hydrochloride], for which the IC50 came to 54.3 nM.

In the case of `N#Cc1cc(-c2cncc(Cl)c2)c2ncn(C/C(F)=C/CN)c2c1` [Example 189, (Z)-1-(4-amino-2-fluorobut-2-en-1-yl)-4-(5-chloropyridin-3-yl)-1H-benzo[d]imidazol-6-carbonitrile hydrochloride], the IC50 was 92.8 nM.

Consider `COC(=O)c1cc(-c2ccc(OC)c(S(=O)(=O)NC(C)C)c2)c2ncn(C/C(F)=C/CN)c2c1` [Example 28, methyl (Z)-1-(4-amino-2-fluorobut-2-en-1-yl)-4-(3-(N-isopropylsulfamoyl)-4-methoxyphenyl)-1H-benzo[d]imidazol-6-carboxylate hydrochloride], for which the IC50 is 54.2 nM.

With `CNS(=O)(=O)c1ccc(OC)c(-c2cc(C(=O)NOC)cc3c2nnn3C/C(F)=C/CN)c1` [Example 134, (Z)-1-(4-amino-2-fluorobut-2-en-1-yl)-N-methoxy-4-(2-methoxy-5-(N-methylsulfamoyl)phenyl)-1H-benzo[d][1,2,3]triazol-6-carboxamide hydrochloride], the IC50 came to 8 nM.

Regarding `COC(=O)c1cc(-c2cccc(S(=O)(=O)N(C)C)c2)c2nnn(C/C(F)=C/CN)c2c1` [Example 124, methyl (Z)-1-(4-amino-2-fluorobut-2-en-1-yl)-4-(3-(N,N-dimethylsulfamoyl)phenyl)-1H-benzo[d][1,2,3]triazol-6-carboxylate hydrochloride], the IC50 was determined as 14.2 nM.

As for `CCN(CC)S(=O)(=O)c1ccc(OC)c(-c2cc(C(=O)NOC)cc3c2nnn3C/C(F)=C/CN)c1` [Example 135, (Z)-1-(4-amino-2-fluorobut-2-en-1-yl)-4-(5-(N,N-diethylsulfamoyl)-2-methoxyphenyl)-N-m ethoxy-1H-benzo[d][1,2,3]triazol-6-carboxamide hydrochloride], the IC50 came out at 35.6 nM.

Consider `COC(=O)c1cc(-c2cccc(S(=O)(=O)NCc3ccc(OC)cc3)c2)c2ncn(C/C(F)=C/CN)c2c1` [Example 32, methyl (Z)-1-(4-amino-2-fluorobut-2-en-1-yl)-4-(3-(N-(4-methoxybenzyl)sulfamoyl)phenyl)-1H-benzo[d]imidazol-6-carboxylate hydrochloride], for which the IC50 turned out to be 60.1 nM.

As to `CNS(=O)(=O)c1cccc(-c2cc(C(=O)OC)cc3c2nnn3C/C(F)=C/CN)c1` [Example 123, methyl (Z)-1-(4-amino-2-fluorobut-2-en-1-yl)-4-(3-(N-methylsulfamoyl)phenyl)-1H-benzo[d][1,2,3]triazol-6-carboxylate hydrochloride], the 50% inhibitory concentration (IC50) is 12.6 nM.

For the molecule `COc1ccc(S(=O)(=O)N2CCN(C)CC2)cc1-c1cccc2c1nnn2C/C(F)=C/CN` [Example 113, (Z)-3-fluoro-4-(4-(2-methoxy-5-((4-methylpiperazin-1-yl)sulfonyl)phenyl)-1H-benzo[d][1,2,3]triazol-1-yl)but-2-en-1-amine hydrochloride], the IC50 was found to be 65 nM.
